Data: patent US20060005464A1, “Alkyl ethanolamine and biocide combination for hydrocarbon based fuels” (priority 2004, published 2006)

Experiments:
Assay type in all cases: cell-based
[1] = tested on: Mycobacterium marinum (ATCC # 19420); assay: End-point optical density and MIC, Mycobacterium marinum (660 nm, 72 h); settings: pH 8.5; for MIC (estimate of the concentration range in which the amine starts to inhibit growth): 72 hours; for end-point optical density: 660 nm, after 72 hours
Description: (§1) The impact of N-alkylalkanolamines on the control of the bacterial species Mycobacterium smegmatis (ATCC # 19420), a bacteria common in water-oil systems, was evaluated by measuring optical absorbance of samples treated with various alkyl ethanolaminesis DCHA=Dicyclohexylamine, OAE=Octylaminoethanol, ODEA=Octyldiethanolamine. Bacterial concentration was monitored indirectly via optical absorbance at 660 nm. The values reported are end-point optical densities in milliOD units after 48 hours. The media consisted of a standardized solution of clear nutrient broth (Middlebrook 7H10 with OADC supplement), amine, buffer (Tris) and water. The pH was adjusted initially to 8.5 with Tris buffer. The first column in the Table gives the amine concentration in ppm. The final two columns give data for cells that also contained 2 grams per liter of boric acid. In all cases, the values are averages of at least three replicates. The final row of the Table gives an estimate of the concentration range in which the amine in question starts to inhibit the growth of this bacterial species.
The impact of the N-alkylalkanolamines of Example 6 on the control of the bacterial species Mycobacterium marinum (ATCC # 19420), bacteria common in water-oil systems, was evaluated as described above in Example 6. Bacterial concentration in the experimental media was monitored indirectly via optical absorbance at 660 nm. The values reported are end-point optical densities in milliOD units after 72 hours. The media consisted of a standardized solution of clear nutrient broth (Middlebrook 7H10 with OADC supplement), amine, buffer (Tris) and water. The pH was adjusted initially to 8.5 with Tris buffer. The first column in the Table gives the amine concentration in ppm. In all cases, the values are averages of at least three replicates. The final row of the Table gives an estimate of the concentration range in which the amine in question starts to inhibit the growth of this bacterial species.

[2] = tested on: Mycobacterium smegmatis (ATCC # 19420); assay: End-point optical density and MIC, Mycobacterium smegmatis (660 nm, 48 h); settings: for MIC (estimate of the concentration range in which the amine starts to inhibit growth): 48 hours; for end-point optical density: 660 nm, after 48 hours
Description: as §1

[3] = tested on: mixed enteric bacteria (klebsiella pneumoniae, Proteus vulgarus, Citrobacter sp., Escherichia coli); assay: Maximum growth slope of mixed enteric bacteria culture with GROTAN plus alkanolamine; settings: pH 9.0, TSB with emulsified oil, 24 hour
Description: A culture of mixed enteric bacteria (klebsiella pneumoniae, Proteus vulgarus, Citrobacter sp., Escherichia coli) at pH=9.0 in TSB (trypticase soy broth) media mixed with emulsified oil was prepared. A biocide, GROTAN® {78.5% 1,3,5-(2-hydroxyethyl)-s-triazine solution in water} as sold by Troy Chemicals (Florham Park, N.J.) was added at varying concentrations to the culture in combination with 2500 ppm of one of the four alkanolamines, N-butylaminoethanol (BAE), diethanolamine (DEA), diglycolamine (DGA) or 2-amino-2-methyl-1-propanol (AMP). Optical density measurements were taken every 15 minutes over a 24 hour time period (total of 96 data points). The maximum growth slope was calculated by taking the 10 contiguous data points that result in the highest growth slope (units of OD per time) over the 24 hour period. Those 10 data points were subjected to a least squares linear fit to calculate the maximum growth slope.

[4] = tested on: Pseudomonas aeruginosa (ATCC 10145); assay: Maximum growth slope of Pseudomonas aeruginosa with Proxel DB20 (BIT) plus alkanolamine; settings: pH 8.5, TSB, 24 hour
Description: A culture of Pseudomonas aeruginosa (ATCC 10145) at pH=8.5 in TSB (trypticase soy broth) media was prepared. The biocide Proxel DB20 (20% suspension of benzoisothiazolone (BIT) in water), as sold by Avecia, was added at varying concentrations in combination with 1000 ppm or 2000 ppm of the alkanolamines N-butylaminoethanol (BAE), 2-amino-2-methyl-1-propanol (AMP), dibutylaminoethanol (DBAE) or n-octylaminoethanol (OAE). Optical density measurements were taken every 15 minutes over a 24 hour time period (total of 96 data points). The maximum growth slope was calculated by taking the 10 contiguous data points that result in the highest growth slope (units of OD per time) over a 24 hour period. Those 10 data points were subjected to a least squares linear fit to calculate the maximum growth slope.

[5] = tested on: Mycobacterium smegmatis (ATCC # 19420); assay: End-point optical density of Mycobacterium smegmatis with N-alkyl alkanolamines (590 nm, 72 h); settings: for end-point optical density: 590 nm, after 72 hours, pH 8.5, tetrazolium dye
[6] = tested on: Aureobasidium pullulans (ATCC 12536); assay: End-point optical density of Aureobasidium pullulans with MIT/CMIT plus alkanolamine; settings: SAB media pH 8.5
Description: The impact of N-alkylalkanolamines on the control of the bacterial species Aureobasidium pullulans (ATCC 12536), a bacteria common in water-oil systems, was evaluated by measuring optical absorbance of samples treated with various concentrations of N-alkyl alkanolamines. […] SAB media at pH 8.5 (Tris buffer) was employed. Table 8 summarizes measurement of end-point optical density after 24 hours and 48 hours: […]

[7] = tested on: Pseudomonas Aeruginosa (ATCC27853); assay: Microtiter plate growth of Pseudomonas Aeruginosa with amines and GROTAN; settings: for growth of Pseudomonas Aeruginosa (Table 1 entry): pH 8.5, 24 hours
[8] = amine 500 ppm plus 2 grams per liter of boric acid
[9] = amine 1000 ppm plus 2 grams per liter of boric acid
[10] = amine 2000 ppm plus 2 grams per liter of boric acid
[11] = with 2 grams per liter of boric acid
[12] = 2500 ppm amine plus GROTAN 650 ppm
[13] = 2500 ppm amine plus GROTAN 1650 ppm
[14] = amine 1000 ppm plus BIT 150 ppm
[15] = amine 1000 ppm plus BIT 250 ppm
[16] = amine 1000 ppm plus BIT 500 ppm
[17] = amine 2000 ppm plus BIT 150 ppm
[18] = amine 2000 ppm plus BIT 250 ppm
[19] = amine 2000 ppm plus BIT 500 ppm

Q: `C1CCC(NC2CCCCC2)CC1` [DCHA, Dicyclohexylamine, reference compound] was tested. Which “MIC (estimate of the concentration range in which the amine starts to inhibit growth)” value [1] did it give?
A: >4000 ppm

Q: What about the end-point optical density ([1]; amine 400 ppm) of the same compound?
A: 0.6 milliOD

Q: And the end-point optical density ([1]; amine 800 ppm)?
A: 0.6 milliOD

Q: And the end-point optical density ([1]; amine 1200 ppm)?
A: 0.5 milliOD

Q: And the end-point optical density ([1]; amine 2000 ppm)?
A: 0.4 milliOD

Q: And the end-point optical density ([1]; amine 4000 ppm)?
A: 0.4 milliOD

Q: And the “MIC (estimate of the concentration range in which the amine starts to inhibit growth)” value ([2]; pH 8.5, no boric acid)?
A: 1500-2000 ppm

Q: And the end-point optical density [2, 8]?
A: 1.125 milliOD

Q: And the end-point optical density ([2]; amine 500 ppm, pH 8.5)?
A: 1.02 milliOD

Q: What about the end-point optical density [2, 9] of the same compound?
A: 0.855 milliOD

Q: And the end-point optical density ([2]; amine 1000 ppm, pH 8.5)?
A: 0.802 milliOD

Q: What about the end-point optical density ([2]; amine 1500 ppm, pH 8.5) of the same compound?
A: 0.995 milliOD

Q: What about the end-point optical density [2, 10] of the same compound?
A: 0.085 milliOD

Q: What about the end-point optical density ([2]; amine 2000 ppm, pH 8.5) of the same compound?
A: 0.268 milliOD

Q: And the “MIC (estimate of the concentration range in which the amine starts to inhibit growth)” value [2, 11]?
A: 1000-2000 ppm

Q: With `OCCNCCO` [DEA, diethanolamine] as the compound, how does the maximum growth slope [3, 12] read?
A: 0.466 OD per time

Q: What about the maximum growth slope [3, 13] of the same compound?
A: 0.117 OD per time

Q: What about the maximum growth slope ([3]; 2500 ppm amine, GROTAN 0 ppm) of the same compound?
A: 0.723 OD per time

Q: What does the source list for `CCCCCCCCNCCO` [OAE, n-octylaminoethanol]?
A: maximum growth slope [4, 14]: 0.000 OD per time; maximum growth slope [4, 15]: 0.000 OD per time; maximum growth slope [4, 16]: 0.000 OD per time; maximum growth slope ([4]; amine 1000 ppm, BIT 0 ppm): 0.000 OD per time; maximum growth slope [4, 17]: 0.000 OD per time; maximum growth slope [4, 18]: 0.000 OD per time; maximum growth slope [4, 19]: 0.000 OD per time; maximum growth slope ([4]; amine 2000 ppm, BIT 0 ppm): 0.000 OD per time; end-point optical density ([5]; amine 470 ppm): 0 milliOD; end-point optical density ([5]; amine 940 ppm): 0 milliOD; end-point optical density ([5]; amine 1880 ppm): 0 milliOD; end-point optical density ([5]; amine 3750 ppm): 0 milliOD; end-point optical density ([5]; amine 7500 ppm): 0 milliOD; effectiveness against Mycobacteria ([5]; compared with AMP, conclusion from Table 5): markedly more effective than AMP; MIC (estimate of the concentration range in which the amine starts to inhibit growth) [1]: 1200-2000 ppm; end-point optical density ([1]; amine 400 ppm): 0.4 milliOD; end-point optical density ([1]; amine 800 ppm): 0.4 milliOD; end-point optical density ([1]; amine 1200 ppm): 0.4 milliOD; end-point optical density ([1]; amine 2000 ppm): 0 milliOD; end-point optical density ([1]; amine 4000 ppm): 0 milliOD; end-point optical density ([6]; amine 200 ppm plus 50 ppm MIT/CMIT, 24 hours): 0.1; end-point optical density ([6]; amine 200 ppm plus 50 ppm MIT/CMIT, 48 hours): 0.1; end-point optical density ([6]; amine 500 ppm plus 50 ppm MIT/CMIT, 24 hours): 0; end-point optical density ([6]; amine 500 ppm plus 50 ppm MIT/CMIT, 48 hours): 0; MIC (estimate of the concentration range in which the amine starts to inhibit growth) ([2]; pH 8.5, no boric acid): <500 ppm; end-point optical density [2, 8]: 0.100 milliOD; end-point optical density ([2]; amine 500 ppm, pH 8.5): 0.184 milliOD; end-point optical density [2, 9]: 0.121 milliOD; end-point optical density ([2]; amine 1000 ppm, pH 8.5): 0.149 milliOD; end-point optical density ([2]; amine 1500 ppm, pH 8.5): 0.213 milliOD; end-point optical density [2, 10]: 0.015 milliOD; end-point optical density ([2]; amine 2000 ppm, pH 8.5): 0.226 milliOD; end-point optical density ([2]; amine 4000 ppm, pH 8.5): 0.205 milliOD; MIC (estimate of the concentration range in which the amine starts to inhibit growth) [2, 11]: <500 ppm

Q: What does the source list for `CCCCCCCCN(CCO)CCO` [ODEA, Octyldiethanolamine]?
A: MIC (estimate of the concentration range in which the amine starts to inhibit growth) [1]: 1200-2000 ppm; end-point optical density ([1]; amine 400 ppm): 0.6 milliOD; end-point optical density ([1]; amine 800 ppm): 0.4 milliOD; end-point optical density ([1]; amine 1200 ppm): 0.4 milliOD; end-point optical density ([1]; amine 2000 ppm): 0.1 milliOD; end-point optical density ([1]; amine 4000 ppm): 0 milliOD; MIC (estimate of the concentration range in which the amine starts to inhibit growth) ([2]; pH 8.5, no boric acid): 500-1000 ppm; end-point optical density ([2]; amine 500 ppm, pH 8.5): 0.847 milliOD; end-point optical density ([2]; amine 1000 ppm, pH 8.5): 0.117 milliOD; end-point optical density ([2]; amine 1500 ppm, pH 8.5): 0.260 milliOD; end-point optical density ([2]; amine 2000 ppm, pH 8.5): 0.225 milliOD

Q: With `CCCCN(CCO)CCCC` [DBAE, dibutylaminoethanol] as the compound, how does the maximum growth slope [4, 14] read?
A: 0.221 OD per time

Q: And the maximum growth slope [4, 15]?
A: 0.255 OD per time

Q: And the maximum growth slope [4, 16]?
A: 0.143 OD per time

Q: And the maximum growth slope ([4]; amine 1000 ppm, BIT 0 ppm)?
A: 0.228 OD per time

Q: And the maximum growth slope [4, 17]?
A: 0.084 OD per time

Q: And the maximum growth slope [4, 18]?
A: 0.104 OD per time

Q: And the maximum growth slope [4, 19]?
A: 0.000 OD per time

Q: What about the maximum growth slope ([4]; amine 2000 ppm, BIT 0 ppm) of the same compound?
A: 0.114 OD per time

Q: What about the end-point optical density ([5]; amine 470 ppm) of the same compound?
A: 2000 milliOD

Q: What about the end-point optical density ([5]; amine 940 ppm) of the same compound?
A: 2000 milliOD

Q: What about the end-point optical density ([5]; amine 1880 ppm) of the same compound?
A: 2000 milliOD

Q: And the end-point optical density ([5]; amine 3750 ppm)?
A: 1900 milliOD

Q: What about the end-point optical density ([5]; amine 7500 ppm) of the same compound?
A: 1200 milliOD

Q: What about the end-point optical density ([6]; amine 1000 ppm plus 50 ppm MIT/CMIT, 24 hours) of the same compound?
A: 0.3

Q: What about the end-point optical density ([6]; amine 1000 ppm plus 50 ppm MIT/CMIT, 48 hours) of the same compound?
A: 0.4

Q: And the end-point optical density ([6]; amine 2000 ppm plus 50 ppm MIT/CMIT, 24 hours)?
A: 0.2

Q: And the end-point optical density ([6]; amine 2000 ppm plus 50 ppm MIT/CMIT, 48 hours)?
A: 0.2

Q: Which results are given for `NCCOCCO` [DGA, diglycolamine, reference compound]?
A: growth of Pseudomonas Aeruginosa (Table 1 entry) ([7]; amine 2000 ppm plus GROTAN 100 ppm): 0.71; growth of Pseudomonas Aeruginosa (Table 1 entry) ([7]; amine 2000 ppm plus GROTAN 250 ppm): 0.70; growth of Pseudomonas Aeruginosa (Table 1 entry) ([7]; amine 2000 ppm plus GROTAN 500 ppm): 0.76; growth of Pseudomonas Aeruginosa (Table 1 entry) ([7]; amine 2000 ppm plus GROTAN 1000 ppm): 0.32; growth of Pseudomonas Aeruginosa (Table 1 entry) ([7]; amine 2000 ppm plus GROTAN 2000 ppm): 0.34; growth of Pseudomonas Aeruginosa (Table 1 entry) ([7]; amine 2000 ppm, GROTAN 0 ppm): 0.76; growth of Pseudomonas Aeruginosa (Table 1 entry) ([7]; amine 4000 ppm plus GROTAN 100 ppm): 0.70; growth of Pseudomonas Aeruginosa (Table 1 entry) ([7]; amine 4000 ppm plus GROTAN 250 ppm): 0.69; growth of Pseudomonas Aeruginosa (Table 1 entry) ([7]; amine 4000 ppm plus GROTAN 500 ppm): 0.36; growth of Pseudomonas Aeruginosa (Table 1 entry) ([7]; amine 4000 ppm plus GROTAN 1000 ppm): 0.29; growth of Pseudomonas Aeruginosa (Table 1 entry) ([7]; amine 4000 ppm plus GROTAN 2000 ppm): 0.36; growth of Pseudomonas Aeruginosa (Table 1 entry) ([7]; amine 4000 ppm, GROTAN 0 ppm): 0.68; enhancement in the biocidal effect of GROTAN ([7]; conclusion from Table 1): not seen; maximum growth slope [3, 12]: 0.1955 OD per time; maximum growth slope [3, 13]: 0.0725 OD per time; maximum growth slope ([3]; 2500 ppm amine, GROTAN 0 ppm): 0.796 OD per time
